Assay results as given in the supplement of paper PMC10307832.

Compound: C[C@@]1(C(=O)Nc2ccc(F)nc2)CCCN1c1nc(Nc2cc(C3CC3)n[nH]2)c2cccn2n1 + CC(=O)c1c(C)c2cnc(Nc3ccc(N4CCNCC4)cn3)nc2n(C2CCCC2)c1=O [Palbociclib] (partner 0.5 µM)
Assay: relative viability (nuclei count vs DMSO), 5 days (fraction); higher = more cells survive
Conditions: first compound 0.04 µM
Summary of the method: (§1)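 Five library-drug doses in √10 steps were combined with a fixed anchor-drug dose, or a single drug was given alone, by pin tool to lung cancer cell lines in 1536-well plates the day after seeding. Nuclei were stained and counted after 5 days. Relative viability is the nuclei count in treated wells over that in vehicle wells, taken as the median of duplicate plates.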

Cell Line | relative viability
NCI-H2342 | 0.505
NCI-H727 | 0.575
NCI-H1650 | 0.324
NCI-H1993 | 0.461
SW 1573 | 0.342
NCI-H838 | 0.241
LCLC-103H | 0.471
NCI-H520 | 0.254
NCI-H2126 | 0.353
EMC-BAC-2 | 0.393
NCI-H2085 | 0.485
HCC-366 | 0.338
NCI-H1666 | 0.647
LK-2 | 0.381
NCI-H2087 | 0.218
NCI-H1648 | 0.257
SK-MES-1 | 0.34
H3255 | 0.314
COR-L23 | 0.242
COR-L 105 | 0.416
LOU-NH91 | 0.528
ChaGo-K-1 | 0.972
NCI-H2170 | 0.362
NCI-H2405 | 0.47

Cell Line | relative viability
HOP-62 | 0.51
HCC-44 | 0.846
NCI-H522 | 0.935
LU99A | 0.273
BEN | 0.445
HARA | 0.238
SW 900 | 0.614
HCC-78 | 0.446
NCI-H322M | 0.393
LCLC-97TM1 | 0.0888
NCI-H2009 | 0.221
A-427 | 0.497
NCI-H441 | 0.132
NCI-H661 | 0.388
NCI-H1734 | 0.275
NCI-H460 | 0.226
NCI-H2347 | 0.405
SK-LU-1 | 0.391
NCI-H1395 | 0.658
201T | 0.317
NCI-H1915 | 0.534
HCC-827 | 0.418
LXF-289 | 0.644
NCI-H23 | 0.386

Cell Line | relative viability
NCI-H647 | 0.398
CAL-12T | 0.407
NCI-H1651 | 0.494
EPLC-272H | 0.253
NCI-H2228 | 0.694
NCI-H1792 | 0.417
NCI-H1355 | 0.312
NCI-H3122 | 0.158
NCI-H1437 | 0.302
NCI-H1755 | 0.403
NCI-H2023 | 0.255
HCC-15 | 0.667
NCI-H1793 | 0.367
PC-14 | 0.552
EKVX | 0.387
LC-2-ad | 0.421
NCI-H1944 | 0.272
NCI-H1975 | 0.564
RERF-LC-KJ | 1.03
ABC-1 | 0.647
NCI-H358 | 0.112
NCI-H650 | 0.305
PC-3 [JPC-3] | 0.557

Same assay, conditions: first compound 0.1265 µM

Cell Line | relative viability
NCI-H2342 | 0.598
NCI-H727 | 0.528
NCI-H1650 | 0.36
NCI-H1993 | 0.465
SW 1573 | 0.262
NCI-H838 | 0.191
LCLC-103H | 0.452
NCI-H520 | 0.196
NCI-H2126 | 0.309
EMC-BAC-2 | 0.333
NCI-H2085 | 0.455
HCC-366 | 0.313
NCI-H1666 | 0.627
LK-2 | 0.287
NCI-H2087 | 0.188
NCI-H1648 | 0.246
SK-MES-1 | 0.355
H3255 | 0.326
COR-L23 | 0.308
COR-L 105 | 0.422
LOU-NH91 | 0.471
ChaGo-K-1 | 0.828
NCI-H2170 | 0.396
NCI-H2405 | 0.303

Cell Line | relative viability
HOP-62 | 0.42
HCC-44 | 0.904
NCI-H522 | 0.874
LU99A | 0.208
BEN | 0.484
HARA | 0.189
SW 900 | 0.497
HCC-78 | 0.377
NCI-H322M | 0.362
LCLC-97TM1 | 0.108
NCI-H2009 | 0.258
A-427 | 0.459
NCI-H441 | 0.146
NCI-H661 | 0.427
NCI-H1734 | 0.236
NCI-H460 | 0.0841
NCI-H2347 | 0.415
SK-LU-1 | 0.358
NCI-H1395 | 0.603
201T | 0.264
NCI-H1915 | 0.507
HCC-827 | 0.466
LXF-289 | 0.541
NCI-H23 | 0.267

Cell Line | relative viability
NCI-H647 | 0.413
CAL-12T | 0.407
NCI-H1651 | 0.442
EPLC-272H | 0.308
NCI-H2228 | 0.425
NCI-H1792 | 0.742
NCI-H1355 | 0.269
NCI-H3122 | 0.183
NCI-H1437 | 0.278
NCI-H1755 | 0.433
NCI-H2023 | 0.22
HCC-15 | 0.579
NCI-H1793 | 0.294
PC-14 | 0.469
EKVX | 0.277
LC-2-ad | 0.396
NCI-H1944 | 0.237
NCI-H1975 | 0.521
RERF-LC-KJ | 0.946
ABC-1 | 0.42
NCI-H358 | 0.121
NCI-H650 | 0.211
PC-3 [JPC-3] | 0.467

Same assay, conditions: first compound 0.4 µM

Cell Line | relative viability
NCI-H2342 | 0.47
NCI-H727 | 0.404
NCI-H1650 | 0.328
NCI-H1993 | 0.27
SW 1573 | 0.294
NCI-H838 | 0.185
LCLC-103H | 0.48
NCI-H520 | 0.201
NCI-H2126 | 0.342
EMC-BAC-2 | 0.331
NCI-H2085 | 0.439
HCC-366 | 0.28
NCI-H1666 | 0.599
NCI-H2087 | 0.177
NCI-H1648 | 0.269
SK-MES-1 | 0.293
H3255 | 0.299
COR-L23 | 0.197
COR-L 105 | 0.435
LOU-NH91 | 0.546
ChaGo-K-1 | 0.86
NCI-H2170 | 0.369
NCI-H2405 | 0.391
HOP-62 | 0.359

Cell Line | relative viability
HCC-44 | 0.803
NCI-H522 | 0.779
LU99A | 0.173
BEN | 0.472
HARA | 0.159
SW 900 | 0.588
HCC-78 | 0.464
NCI-H322M | 0.374
LCLC-97TM1 | 0.0814
NCI-H2009 | 0.162
A-427 | 0.459
NCI-H441 | 0.116
NCI-H661 | 0.412
NCI-H1734 | 0.226
NCI-H460 | 0.058
NCI-H2347 | 0.386
SK-LU-1 | 0.341
NCI-H1395 | 0.609
201T | 0.311
NCI-H1915 | 0.52
HCC-827 | 0.48
LXF-289 | 0.62
NCI-H23 | 0.243
NCI-H647 | 0.353

Cell Line | relative viability
CAL-12T | 0.358
NCI-H1651 | 0.439
EPLC-272H | 0.285
NCI-H2228 | 0.463
NCI-H1792 | 0.268
NCI-H1355 | 0.242
NCI-H3122 | 0.171
NCI-H1437 | 0.252
NCI-H1755 | 0.469
NCI-H2023 | 0.174
HCC-15 | 0.529
NCI-H1793 | 0.225
PC-14 | 0.49
EKVX | 0.279
LC-2-ad | 0.384
NCI-H1944 | 0.251
NCI-H1975 | 0.374
RERF-LC-KJ | 0.943
ABC-1 | 0.437
NCI-H358 | 0.115
NCI-H650 | 0.263
PC-3 [JPC-3] | 0.516

Same assay, conditions: first compound 1.265 µM

Cell Line | relative viability
NCI-H2342 | 0.48
NCI-H727 | 0.38
NCI-H1650 | 0.314
NCI-H1993 | 0.49
SW 1573 | 0.304
NCI-H838 | 0.17
LCLC-103H | 0.465
NCI-H520 | 0.218
NCI-H2126 | 0.359
EMC-BAC-2 | 0.369
NCI-H2085 | 0.443
HCC-366 | 0.243
NCI-H1666 | 0.603
LK-2 | 0.41
NCI-H2087 | 0.181
NCI-H1648 | 0.259
SK-MES-1 | 0.282
H3255 | 0.317
COR-L23 | 0.173
COR-L 105 | 0.438
LOU-NH91 | 0.513
ChaGo-K-1 | 0.93
NCI-H2170 | 0.371
NCI-H2405 | 0.402

Cell Line | relative viability
HOP-62 | 0.475
HCC-44 | 0.885
NCI-H522 | 0.889
LU99A | 0.26
BEN | 0.427
HARA | 0.218
SW 900 | 0.547
HCC-78 | 0.363
NCI-H322M | 0.45
LCLC-97TM1 | 0.145
NCI-H2009 | 0.212
A-427 | 0.472
NCI-H441 | 0.13
NCI-H661 | 0.386
NCI-H1734 | 0.282
NCI-H460 | 0.143
NCI-H2347 | 0.436
SK-LU-1 | 0.37
NCI-H1395 | 0.625
201T | 0.365
NCI-H1915 | 0.551
HCC-827 | 0.459
LXF-289 | 0.661
NCI-H23 | 0.305

Cell Line | relative viability
NCI-H647 | 0.367
CAL-12T | 0.164
NCI-H1651 | 0.491
EPLC-272H | 0.261
NCI-H2228 | 0.498
NCI-H1792 | 0.393
NCI-H1355 | 0.321
NCI-H3122 | 0.185
NCI-H1437 | 0.234
NCI-H1755 | 0.494
NCI-H2023 | 0.209
HCC-15 | 0.598
NCI-H1793 | 0.289
PC-14 | 0.491
EKVX | 0.286
LC-2-ad | 0.347
NCI-H1944 | 0.294
NCI-H1975 | 0.452
RERF-LC-KJ | 0.845
ABC-1 | 0.477
NCI-H358 | 0.107
NCI-H650 | 0.256
PC-3 [JPC-3] | 0.549

Compound: C[C@@]1(C(=O)Nc2ccc(F)nc2)CCCN1c1nc(Nc2cc(C3CC3)n[nH]2)c2cccn2n1 + O=C(c1cc(Cc2n[nH]c(=O)c3ccccc23)ccc1F)N1CCN(C(=O)C2CC2)CC1 [Olaparib] (partner 8 µM)
Assay: as above
Conditions: first compound 0.04 µM
Summary of the method: as §1

Cell Line | relative viability
NCI-H2342 | 0.438
NCI-H727 | 0.746
NCI-H1650 | 0.692
EBC-1 | 0.695
NCI-H1703 | 0.402
NCI-H1993 | 0.926
SW 1573 | 0.38
NCI-H838 | 0.726
LCLC-103H | 0.716
NCI-H520 | 0.334
NCI-H2126 | 0.67
EMC-BAC-2 | 0.406
NCI-H2085 | 0.827
Calu-6 | 0.612
